This test deals with NMJs manufactured using ALS neural biohybrids. The test can be described thus: Muscle bundle contraction in 3D ALS-neuromuscular junction model. The class given is cell-based, human. The settings on record: ALS-NMJ. The procedure:
First, a hydrogel used for the 3D muscle bundles was prepared using a mixture of 340 μl of C2C12, 30% Matrigel, 250 μl of 16 mg/ml […], 10 μl of thrombin (0.5 U/1 mg fibrinogen) and 100 μl of DMEM.
After culturing for 4 days, the medium was replaced with DMEM supplemented with 2% horse serum, 100 U/mL penicillin-G, 100 μg/mL streptomycin, 1 mg/mL aminocaproic acid, and 1 ng/mL insulin growth factor-1 (IGF-1) as a muscle cell differentiation medium. The medium was changed every 2 days, and differentiation was carried out for 14 days or more.
The co-culture differentiation medium, along with muscle differentiation medium, was supplemented with brain-derived and glial cell line-derived neurotrophic factors (10 ng/ml BDNF and 10 ng/ml GDNF) to support viability of multiple neural biohybrids. The differentiation medium was replaced every two days for two weeks.

Molecules are shown by their SMILES.

Experimental findings from US20260265700A1, “NEURAL BIOHYBRID MANUFACTURED USING REDUCED GRAPHENE OXIDE NANOPARTICLES, NEUROMUSCULAR JUNCTION MODEL USING SAME, AND DRUG SCREENING METHOD USING SAME” (Sogang University Research & Business Development Foundation, priority 2023, published 2026) are described below.

Consider `COc1cc(Nc2c(C#N)cnc3cc(OCCCN4CCN(C)CC4)c(OC)cc23)c(Cl)cc1Cl` [bosutinib], for which the “contraction of the muscle bundle relative to muscle movement of normal NMJs” value (after 5 days of treatment, FIG. 3C) is on record as “approximately 85%”. Moreover, the “concentration giving the greatest recovery of muscle movement” value (various concentrations tested, FIGS. 3D and 3E) worked out at 100 µM.
